Results as given in the supplement of paper PMC10307832.

Tests used:
Experiment in all cases: relative viability (nuclei count vs DMSO), 5 days (fraction); higher = more cells survive
Zosuquidar + Olaparib = compound: O[C@@H](COc1cccc2ncccc12)CN1CCN([C@@H]2c3ccccc3[C@@H]3[C@H](c4ccccc42)C3(F)F)CC1 [Zosuquidar] + O=C(c1cc(Cc2n[nH]c(=O)c3ccccc23)ccc1F)N1CCN(C(=O)C2CC2)CC1 [Olaparib] (partner 8 µM)
Procedure, shortened: (§1)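 Lung cancer cell lines in 1536-well plates got either a single drug or a fixed anchor-drug dose together with five library-drug doses (not always all listed) in √10 steps, by pin tool, on the day after seeding. Nuclei were counted after 5 days, and relative viability is the treated-to-vehicle ratio of nuclei counts. Values are medians of duplicate plates.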

Zosuquidar + Trametinib = compound: O[C@@H](COc1cccc2ncccc12)CN1CCN([C@@H]2c3ccccc3[C@@H]3[C@H](c4ccccc42)C3(F)F)CC1 [Zosuquidar] + CC(=O)Nc1cccc(-n2c(=O)n(C3CC3)c(=O)c3c(Nc4ccc(I)cc4F)n(C)c(=O)c(C)c32)c1 [Trametinib] (partner 0.02 µM)
Procedure, shortened: as §1

Kobe2602 + Lapatinib = compound: C1=CC(=CC=C1NC(=S)NNC2=C(C=C(C=C2[N+](=O)[O-])C(F)(F)F)[N+](=O)[O-])F [Kobe2602] + CS(=O)(=O)CCNCc1ccc(-c2ccc3ncnc(Nc4ccc(OCc5cccc(F)c5)c(Cl)c4)c3c2)o1 [Lapatinib] (partner 2 µM)
Procedure, shortened: as §1

Kobe2602 + AZD7762 = compound: C1=CC(=CC=C1NC(=S)NNC2=C(C=C(C=C2[N+](=O)[O-])C(F)(F)F)[N+](=O)[O-])F [Kobe2602] + NC(=O)Nc1cc(-c2cccc(F)c2)sc1C(=O)N[C@H]1CCCNC1 [AZD7762] (partner 0.2 µM)
Procedure, shortened: as §1

| Cell Line | relative viability (Zosuquidar + Olaparib; first compound 0.01 µM) | relative viability (Zosuquidar + Olaparib; first compound 0.03162 µM) | relative viability (Zosuquidar + Olaparib; first compound 0.1 µM) | relative viability (Zosuquidar + Olaparib; first compound 0.3162 µM) | relative viability (Zosuquidar + Olaparib; first compound 1 µM) | relative viability (Zosuquidar + Trametinib; first compound 0.01 µM) | relative viability (Zosuquidar + Trametinib; first compound 0.03162 µM) | relative viability (Zosuquidar + Trametinib; first compound 0.1 µM) | relative viability (Zosuquidar + Trametinib; first compound 0.3162 µM) | relative viability (Zosuquidar + Trametinib; first compound 1 µM) | relative viability (Kobe2602 + Lapatinib; first compound 0.2 µM) | relative viability (Kobe2602 + Lapatinib; first compound 0.6325 µM) | relative viability (Kobe2602 + Lapatinib; first compound 2 µM) | relative viability (Kobe2602 + Lapatinib; first compound 6.325 µM) | relative viability (Kobe2602 + Lapatinib; first compound 20 µM) | relative viability (Kobe2602 + AZD7762; first compound 0.2 µM) | relative viability (Kobe2602 + AZD7762; first compound 0.6325 µM) | relative viability (Kobe2602 + AZD7762; first compound 2 µM) | relative viability (Kobe2602 + AZD7762; first compound 6.325 µM) | relative viability (Kobe2602 + AZD7762; first compound 20 µM) |
| --- | --- | --- | --- | --- | --- | --- | --- | --- | --- | --- | --- | --- | --- | --- | --- | --- | --- | --- | --- | --- |
| HOP-62 | 0.461 | 0.548 | 0.485 | 0.665 | 0.384 | 0.384 | 0.404 | 0.393 | 0.396 | 0.37 | 1.06 | 1.04 | 0.951 | 0.94 | 1.04 | 0.635 | 0.529 | 0.667 | 0.447 | 0.537 |
| LC-2-ad | 0.689 | 0.67 | 0.693 | 0.716 | 0.719 | 0.91 | 0.901 | 0.812 | 0.92 | 0.911 | 1.03 | 0.893 | 0.764 | 0.978 | 0.923 | 0.822 | 0.879 | 0.85 | 0.833 | 0.828 |
| LCLC-97TM1 | 0.307 | 0.453 |  | 0.335 | 0.515 | 0.171 | 0.19 |  | 0.21 | 0.206 | 1.05 | 1.01 | 0.817 | 0.965 | 0.893 | 0.364 | 0.303 | 0.341 | 0.279 | 0.37 |
| LK-2 | 0.542 | 0.891 | 0.597 | 0.752 | 0.852 | 0.822 | 0.794 | 0.735 | 0.825 | 0.89 | 1.02 | 0.857 | 0.961 | 0.83 | 1.09 | 0.464 | 0.385 | 0.427 | 0.302 | 0.553 |
| LOU-NH91 | 0.845 | 0.904 | 0.728 | 0.97 | 0.873 | 0.782 | 0.809 | 0.695 | 0.808 | 0.785 | 0.706 | 0.774 | 0.718 | 0.801 | 0.805 | 0.739 | 0.792 | 0.717 | 0.758 | 0.716 |
| LU99A | 0.239 | 0.264 | 0.285 | 0.273 | 0.254 | 0.55 | 0.597 | 0.522 | 0.537 | 0.551 | 0.989 | 0.921 | 0.959 | 0.97 | 1.07 | 0.356 | 0.381 | 0.31 | 0.279 | 0.356 |
| LXF-289 | 1.01 | 1.03 | 1.09 | 1.09 | 1 | 0.614 | 0.703 | 0.675 | 0.727 | 0.654 | 0.872 | 0.891 | 0.88 | 0.874 | 0.873 | 1.06 | 1.08 | 1.08 | 1.06 | 1.08 |
| NCI-H23 | 0.328 |  | 0.362 | 0.319 | 0.336 | 0.363 |  | 0.411 | 0.441 | 0.402 | 0.999 | 1.36 | 1.08 | 1.05 | 1.07 | 0.332 | 0.312 | 0.217 | 0.197 | 0.182 |
| NCI-H322M | 0.774 | 0.898 | 0.665 | 0.698 | 0.796 | 0.52 | 0.586 | 0.555 | 0.54 | 0.427 | 0.588 | 0.648 | 0.652 | 0.571 | 0.647 | 0.604 | 0.52 | 0.474 | 0.72 | 0.587 |
| NCI-H358 | 0.671 | 0.632 | 0.519 | 0.65 | 0.703 | 0.133 | 0.132 | 0.155 | 0.125 | 0.125 | 0.448 | 0.485 | 0.451 | 0.451 | 0.452 | 0.608 | 0.486 | 0.522 | 0.618 | 0.552 |
| NCI-H460 | 0.41 | 0.403 | 0.32 | 0.421 | 0.39 | 0.13 | 0.142 | 0.157 | 0.239 | 0.0685 | 0.962 | 0.983 | 1.06 | 1 | 0.999 | 0.64 | 0.756 | 0.681 | 0.652 | 0.56 |
| NCI-H596 | 0.651 | 0.607 | 0.67 | 0.696 | 0.666 | 0.762 | 1 | 0.857 | 0.776 | 0.79 | 1.18 | 1.19 | 1.05 | 0.934 | 1.17 | 1.13 | 0.978 | 1.03 | 0.87 | 1.02 |
| NCI-H647 | 0.564 | 0.519 | 0.559 | 0.674 | 0.566 | 0.444 | 0.457 | 0.419 | 0.549 | 0.484 | 1.09 | 0.937 | 0.943 | 0.938 | 1.01 | 0.681 | 0.645 | 0.423 | 0.532 | 0.454 |
| NCI-H650 | 0.393 | 0.393 | 0.394 | 0.454 | 0.369 | 1.22 | 0.957 | 1 | 0.969 | 1.08 | 0.852 | 1.07 | 1.19 | 1.04 | 0.99 | 0.843 | 1.14 | 0.924 | 0.971 | 1.06 |
| NCI-H727 | 0.72 | 0.772 |  | 0.746 | 0.7 | 0.391 | 0.378 |  | 0.394 | 0.383 | 0.885 | 0.783 | 0.879 | 0.996 | 0.986 | 0.57 | 0.519 | 0.532 |  | 0.644 |
| NCI-H838 | 0.758 | 0.74 | 0.814 | 0.825 | 0.847 | 0.561 | 0.465 | 0.487 | 0.617 | 0.509 | 0.905 | 1.14 | 0.96 | 1 | 0.87 | 0.918 | 1.01 | 0.874 | 0.915 | 0.898 |
